Laboratory results as given in patent US20230357179A1, “RAF KINASE INHIBITORS AND METHODS OF USE THEREOF” (Deciphera Pharmaceuticals, LLC, priority 2021, published 2023).
pIC50: −log10 of the molar value.

Test system: WM3629 cells
Test: WM3629 cell proliferation assay (1), resazurin, 96-well
Assay type: cell-based
Settings: inhibition of cell proliferation
Method: WM3629 Cell Proliferation Assay (1)
WM3629 cells (#WM3629-01-0001) are obtained from Rockland Immunochemicals Inc (Gilbertsville, PA). Briefly, cells were grown in MCDB 153 medium (Sigma, #M7403, St. Louis, MO) supplemented with 20% Leibovitz's L-15 (ThermoFisher #11415-064, Waltham, MA), 2% heat inactivated fetal bovine serum (ThermoFisher, #A3840001, Waltham, MA), 5 μg/mL Insulin (Bovine Pancreas) (Sigma, #I0516, St. Louis, MO), 1.68 mM Calcium Chloride (Sigma, #C-34006, St. Louis, MO) and 1% Penicillin/Streptomycin/L-Glutamine (ThermoFisher #10378016, Waltham, MA) at 37° C., 5% CO2, and 95% humidity. Cells are expanded until reaching 70-95% confluency at which point they are subcultured or harvested for assay use. A serial dilution of test compound is dispensed into a 96-well black clear bottom plate in triplicate. Four thousand five hundred cells are added per well in 200 μL complete growth medium in the 96-well plate. Plates are incubated for 67-72 hours at 37° C., 5% CO2, and 95% humidity. At the end of the incubation, 40 μL of a 440 μM solution of resazurin (Sigma, #199303, St. Louis, MO) in PBS is added to each well of the plate and plates are incubated for an additional 6-7 hours at 37° C., 5% CO2, and 95% humidity. Plates are read on a Synergy2 or equivalent reader (Biotek, Winooski VT) using an excitation of 540 nm and an emission of 600 nm. Data is analyzed using Prism software (GraphPad, San Diego, CA) to calculate IC50 values.

**Q.** With `Cc1ncc(NC(=O)NCCC2(C)CC2)cc1-c1ccnc(-c2ccnc(NC(=O)C3CC3)c2)n1` [Example 107] as the molecule, how does the pIC50 read?
**A.** ≥ 7.00

**Q.** With `COC(=O)Nc1cc(-c2cc(-c3cc(NC(=O)NCCC(C)C)c(F)cc3C)cc(OCCO)n2)ccn1` [Example 115] as the molecule, how does the pIC50 read?
**A.** ≥ 7.00

**Q.** With `CNC(=O)c1cc(-c2cnnc(-c3cc(NC(=O)NCCC(C)(C)C)c(F)cc3C)c2)ccn1` [Example 119] as the molecule, how does the pIC50 read?
**A.** 6.30 to 7.00

**Q.** `COC(=O)Nc1cc(-c2cc(-c3cc(NC(=O)NC4CC(C)(C)C4)cnc3C)cc(OCCO)n2)ccn1` [Example 156] was tested. Which pIC50 did it give?
**A.** ≥ 7.00

Test system: Miapaca-2 cells
Test: MiaPaca-2 combination cell proliferation assay (1) with cobimetinib, 96-well
Assay type: cell-based
Settings: inhibition of cell proliferation, read-out: MiaPaca-2 Combo (1) IC50
Method: MiaPaca-2 Combination Cell proliferation Assay (1)
Miapaca-2 cells (catalog #CRL-1420) are obtained from the American Type Culture Collect (ATCC, Manassas, VA). Briefly, cells were grown in DMEM supplemented with 10% characterized fetal bovine serum (Invitrogen, Carlsbad, CA), 2.5% New Zealand sourced horse serum and 1% Penicillin/Streptomycin/L-Glutamine at 37° C., 5% CO2, and 95% humidity. Cells are expanded until reaching 70-95% confluency at which point they are subcultured or harvested for assay use. A serial dilution of test compound was dispensed into multiple 96-well black clear bottom plates in triplicate. A serial dilution of complete growth medium containing cobimetinib was prepared at twice the final concentration and 100 μL was dispensed across the test compound titration in triplicate. Three thousand cells are added per well in 100 μL complete growth medium in each 96-well plate. Plates are incubated for 67-72 hours at 37° C., 5% CO2, and 95% humidity. At the end of the incubation, 40 μL of a 440 μM solution of resazurin (Sigma, St. Louis, MO) in PBS is added to each well of the plate and plates are incubated for an additional 5-7 hours at 37° C., 5% CO2, and 95% humidity. Plates are read on a Synergy2 or equivalent reader (Biotek, Winooski VT) using an excitation of 540 nm and an emission of 600 nm. Drug synergy was assessed via BLISS analysis in the Combenefit software (Cancer Research UK Cambridge Institute, Cambridge, UK). Data is analyzed using Prism software (GraphPad, San Diego, CA) to calculate IC50 values. Shifts in test compound IC50 values are reported from top-constrained combination therapy curves.

**Q.** `Cc1ccc(NC(=O)Nc2cccc(C(F)(F)F)c2)cc1-c1cc(OCCO)nc(N2CCOCC2)c1` [Example 3, 1-(3-(2-(2-hydroxyethoxy)-6-morpholinopyridin-4-yl)-4-methylphenyl)-3-(3-(trifluoromethyl)phenyl)urea] was tested. Which pIC50 did it give?
**A.** ≥ 7.00

**Q.** How did the pIC50 turn out when `Cc1cc(F)c(NC(=O)NCCC(C)(C)C)cc1-c1cc(OCCO)nc(C2=CCOCC2)c1` [Example 7] was run?
**A.** ≥ 7.00

**Q.** `Cc1ncc(NC(=O)NCCC2(C)CC2)cc1-c1cc(OCCO)nc(-c2ccnc(NC(=O)C3CC3)c2)c1` [Example 113] was tested. Which pIC50 did it give?
**A.** ≥ 7.00
